In patent US20260306644A1, “ANTIBODY RECRUITING MOLECULES FOR THE TREATMENT OF CORONAVIRUS DISEASE-19” (priority 2023, published 2026):
Positions of bridges follow the written chain, without caps; N, C: chain ends. Non-standard residues stand in square brackets, D forms with d. Residues, ends and D or L forms follow the SMILES beside them. ξ: configuration not given here. ξIle = CC[C@H](C)C(N)C(=O)O

Target: T1, SARS-CoV-2 Spike A (wild-type) (Severe acute respiratory syndrome coronavirus 2, UniProt P0DTC2)
T1 construct: purchased Meso Scale Diagnostics, LLC V-PLEX SARS-CoV-2 Panel 13 (ACE2) Kit / Panel 23 (ACE2) Kit
Assay: MSD ACE2 competition assay (inhibition of Spike binding with ACE2, ECL), A (wild-type)
Conditions: IC50 Wild Type, Wild Type Spike

Structure (SMILES) | IC50
CC[C@H](C)[C@H](NC(=O)[C@H](CC(C)C)NC(=O)[C@H](CC(=O)O)NC(=O)[C@H](CO)NC(=O)[C@@H](NC(=O)[C@H](CCCNC(=N)N)NC(=O)[C@H](CCSC)NC(=O)[C@H](CO)NC(=O)[C@H](C)NC(=O)[C@H](CCC(=O)O)NC(=O)[C@H](C)NC(=O)[C@H](Cc1c[nH]cn1)NC(=O)CNC(=O)[C@H](CC(C)C)NC(=O)[C@H](CCC(=O)O)NC(=O)[C@H](CC(=O)O)NC(=O)[C@H](CC(C)C)NC(=O)[C@H](CC(C)C)NC(=O)[C@H](CCCNC(=N)N)NC(=O)[C@H](CCSC)NC(=O)[C@@H](NC(=O)[C@H](CCC(=O)O)NC(=O)[C@H](Cc1ccc(O)cc1)NC(=O)[C@@H](NC(=O)[C@H](CCCCN)NC(=O)[C@H](CCC(N)=O)NC(=O)[C@H](CC(C)C)NC(=O)[C@@H](NC(=O)[C@H](Cc1c[nH]c2ccccc12)NC(=O)[C@H](CCC(=O)O)NC(=O)[C@H](CCCCN)NC(=O)[C@@H](N)CC(=O)O)[C@@H](C)CC)[C@@H](C)CC)[C@@H](C)CC)C(C)C)C(=O)N[C@@H](Cc1ccc(O)cc1)C(=O)N[C@@H](CCC(=O)O)C(=O)N[C@@H](Cc1ccccc1)C(=O)N[C@@H](CCSC)C(=O)N[C@@H](CCCCN)C(=O)N[C@@H](CCCCN)C(=O)NCC(=O)O [Compound 102] | 5.96 nM
CC[C@H](C)[C@H](NC(=O)[C@H](CC(C)C)NC(=O)[C@H](CC(=O)O)NC(=O)[C@H](CO)NC(=O)[C@@H](NC(=O)[C@H](CCCNC(=N)N)NC(=O)[C@H](CCSC)NC(=O)[C@H](CO)NC(=O)[C@H](C)NC(=O)[C@H](CCC(=O)O)NC(=O)[C@H](C)NC(=O)[C@H](Cc1c[nH]cn1)NC(=O)CNC(=O)[C@H](CC(C)C)NC(=O)[C@H](CCC(=O)O)NC(=O)[C@H](CC(=O)O)NC(=O)[C@H](CC(C)C)NC(=O)[C@H](CC(C)C)NC(=O)[C@H](CCCNC(=N)N)NC(=O)[C@H](CCSC)NC(=O)[C@@H](NC(=O)[C@H](CCC(=O)O)NC(=O)[C@H](Cc1ccc(O)cc1)NC(=O)[C@@H](NC(=O)[C@H](CCCCN)NC(=O)[C@H](CCC(N)=O)NC(=O)[C@H](CC(C)C)NC(=O)[C@@H](NC(=O)[C@H](Cc1c[nH]c2ccccc12)NC(=O)[C@H](CCC(=O)O)NC(=O)[C@H](CCCCN)NC(=O)[C@H](CC(=O)O)NC(C)=O)[C@@H](C)CC)[C@@H](C)CC)[C@@H](C)CC)C(C)C)C(=O)N[C@@H](Cc1ccc(O)cc1)C(=O)N[C@@H](CCC(=O)O)C(=O)N[C@@H](Cc1ccccc1)C(=O)N[C@@H](CCSC)C(=O)N[C@@H](CCCCN)C(=O)N[C@@H](CCCCN)C(=O)N[C@@H](CC(=O)O)C(=O)N[C@H]1CSSC[C@@H](C(=O)N[C@H](C(=O)O)[C@@H](C)O)NC(=O)[C@H](Cc2c[nH]c3ccccc23)NC(=O)[C@H](C(C)C)NC(=O)[C@H](CC(C)C)NC(=O)[C@H](CCC(=O)O)NC(=O)CNC(=O)[C@H](CC(C)C)NC(=O)[C@H](Cc2c[nH]cn2)NC(=O)[C@H](Cc2c[nH]c3ccccc23)NC(=O)[C@H](C)NC1=O [Compound 114] | 40.7 nM
CC[C@H](C)[C@H](NC(=O)[C@H](CCCCN)NC(=O)[C@H](CCC(N)=O)NC(C)=O)C(=O)N[C@@H](Cc1ccc(O)cc1)C(=O)N[C@@H](CCC(=O)O)C(=O)N[C@H](C(=O)N[C@H]1CSSC[C@@H](C(=O)N[C@@H](CO)C(=O)N[C@@H](CC(=O)O)C(=O)N[C@@H](CC(C)C)C(=O)N[C@H](C(=O)N[C@@H](Cc2ccc(O)cc2)C(=O)N[C@@H](CCC(=O)O)C(=O)N[C@@H](Cc2ccccc2)C(=O)N[C@@H](CCSC)C(=O)N[C@@H](CCCCN)C(=O)N[C@@H](CCCCN)C(=O)NCC(=O)O)[C@@H](C)CC)NC(=O)[C@H](CCCNC(=N)N)NC(=O)[C@H](CCSC)NC(=O)[C@H](CO)NC(=O)[C@H](C)NC(=O)[C@H](CCC(=O)O)NC(=O)[C@H](C)NC(=O)[C@H](Cc2cnc[nH]2)NC(=O)CNC(=O)[C@H](CC(C)C)NC(=O)[C@H](CCC(=O)O)NC(=O)[C@H](CC(=O)O)NC(=O)[C@H](CC(C)C)NC(=O)[C@H](CC(C)C)NC(=O)[C@H](CCCNC(=N)N)NC1=O)[C@@H](C)CC [Compound 133] (Ac-QKIYEICRLLDELGHAEASMRCSDLIYEFMKKG-OH; disulfide 7-22) | 1530 nM
CC[C@H](C)C(N)C(=O)N[C@@H](CC(C)C)C(=O)N[C@@H](CCC(N)=O)C(=O)N[C@@H](CCCCN)C(=O)N[C@H](C(=O)N[C@@H](Cc1ccc(O)cc1)C(=O)N[C@@H](CCC(=O)O)C(=O)N[C@H](C(=O)N[C@H]1CSSC[C@@H](C(=O)N[C@@H](CO)C(=O)N[C@@H](CC(=O)O)C(=O)N[C@@H](CC(C)C)C(=O)N[C@H](C(=O)N[C@@H](Cc2ccc(O)cc2)C(=O)N[C@@H](CCC(=O)O)C(=O)N[C@@H](Cc2ccccc2)C(=O)N[C@@H](CCSC)C(=O)N[C@@H](CCCCN)C(=O)N[C@@H](CCCCN)C(=O)NCC(=O)O)[C@@H](C)CC)NC(=O)[C@H](CCCNC(=N)N)NC(=O)[C@H](CCSC)NC(=O)[C@H](CO)NC(=O)[C@H](C)NC(=O)[C@H](CCC(=O)O)NC(=O)[C@H](C)NC(=O)[C@H](Cc2cnc[nH]2)NC(=O)CNC(=O)[C@H](CC(C)C)NC(=O)[C@H](CCC(=O)O)NC(=O)[C@H](CC(=O)O)NC(=O)[C@H](CC(C)C)NC(=O)[C@H](CC(C)C)NC(=O)[C@H](CCCNC(=N)N)NC1=O)[C@@H](C)CC)[C@@H](C)CC (stereo partly drawn) [Compound 134] (H-[ξIle]LQKIYEICRLLDELGHAEASMRCSDLIYEFMKKG-OH; disulfide 9-24) | 12.2 nM
CC[C@H](C)[C@H](NC(C)=O)C(=O)N[C@@H](CC(C)C)C(=O)N[C@@H](CCC(N)=O)C(=O)N[C@@H](CCCCN)C(=O)N[C@H](C(=O)N[C@@H](Cc1ccc(O)cc1)C(=O)N[C@@H](CCC(=O)O)C(=O)N[C@H](C(=O)N[C@H]1CSSC[C@@H](C(=O)N[C@@H](CO)C(=O)N[C@@H](CC(=O)O)C(=O)N[C@@H](CC(C)C)C(=O)N[C@H](C(=O)N[C@@H](Cc2ccc(O)cc2)C(=O)N[C@@H](CCC(=O)O)C(=O)N[C@@H](Cc2ccccc2)C(=O)N[C@@H](CCSC)C(=O)N[C@@H](CCCCN)C(=O)N[C@@H](CCCCN)C(=O)NCC(=O)O)[C@@H](C)CC)NC(=O)[C@H](CCCNC(=N)N)NC(=O)[C@H](CCSC)NC(=O)[C@H](CO)NC(=O)[C@H](C)NC(=O)[C@H](CCC(=O)O)NC(=O)[C@H](C)NC(=O)[C@H](Cc2cnc[nH]2)NC(=O)CNC(=O)[C@H](CC(C)C)NC(=O)[C@H](CCC(=O)O)NC(=O)[C@H](CC(=O)O)NC(=O)[C@H](CC(C)C)NC(=O)[C@H](CC(C)C)NC(=O)[C@H](CCCNC(=N)N)NC1=O)[C@@H](C)CC)[C@@H](C)CC [Compound 135] (Ac-ILQKIYEICRLLDELGHAEASMRCSDLIYEFMKKG-OH; disulfide 9-24) | 12.2 nM

Same assay, conditions: read-out: IC50 Wild Type, Wild Type Spike

Structure (SMILES) | IC50
CC[C@H](C)[C@H](NC(=O)[C@H](CCCCN)NC(=O)[C@H](CCC(N)=O)NC(C)=O)C(=O)N[C@@H](Cc1ccc(O)cc1)C(=O)N[C@@H](CCC(=O)O)C(=O)N[C@H](C(=O)N[C@H]1CSSC[C@@H](C(=O)N[C@@H](CO)C(=O)N[C@@H](CC(=O)O)C(=O)N[C@@H](CC(C)C)C(=O)N[C@H](C(=O)N[C@@H](Cc2ccc(O)cc2)C(=O)N[C@@H](CCC(=O)O)C(=O)N[C@@H](Cc2ccccc2)C(=O)N[C@@H](CCSC)C(=O)N[C@@H](CCCCN)C(=O)N[C@@H](CCCCN)C(=O)NCC(=O)O)[C@@H](C)CC)NC(=O)[C@H](CCCNC(=N)N)NC(=O)[C@H](CCSC)NC(=O)[C@H](CO)NC(=O)[C@H](C)NC(=O)[C@H](CCC(=O)O)NC(=O)[C@H](C)NC(=O)[C@H](Cc2cnc[nH]2)NC(=O)CNC(=O)[C@H](CC(C)C)NC(=O)[C@H](CCC(=O)O)NC(=O)[C@H](CC(=O)O)NC(=O)[C@H](CC(C)C)NC(=O)[C@H](CC(C)C)NC(=O)[C@H](CCCNC(=N)N)NC1=O)[C@@H](C)CC [Compound 132] (Ac-QKIYEICRLLDELGHAEASMRCSDLIYEFMKKG-OH; disulfide 7-22) | 5830 nM
